What was measured:
[1] = Conversion of Compound 23 to Compound 1 in HEPES7.4 solution; assay type: physicochemical; conditions: HEPES buffer solution, 37° C.
Experimental: Formulation of HEPES 7.4 solution: 1.6 g of NaCl, 0.074 g of KCl, 0.027 g of Na2HPO4, 0.2 g of glucose and 1 g of a 4-hydroxyethyl piperazine ethanesulfonic acid (HEPES) solution were placed in 90 mL of distilled water, the pH of which was adjusted to 7.4 with 0.5 M NaOH, and then the volume was adjusted to 100 mL with distilled water.
250 μL of the mouse serum or the HEPES7.4 solution was added into the sample, incubated at 37° C., and sampled at different time points, respectively. 20 μL of samples were taken into EP tubes, into which was added 60 μL of methanol, vortexed to mix well, and centrifuged at 12000 rpm at 4° C. for 10 min. The supernatants were taken at 1 h, 2 h, 4 h, 8 h and 12 h, respectively. The samples were analyzed by HPLC with an injection volume of 10 μL, and the corresponding peak areas were recorded. The chromatographic conditions were as follows: the chromatographic column was Hanbang C18 (4.6×250 mm, 5 um); the mobile phase was acetonitrile: […] of ammonium formate solution =60: 40; the flow rate was 1.0 mL/min; the detection wavelength was 210 nm; and the column temperature was 30° C.

[2] = Safety investigation of Compound 23, 30 days in mice; assay type: in vivo, C57BL/6 mice; conditions: for body weight: in % (unit assumed)
[3] = tested on: NLRP3 inflammasome; conditions: read-out: inhibitory activity against the NLRP3 inflammasome activation, EC50; cited from earlier work

With CN(C)C[C@@H]1C(=O)O[C@H]2[C@H]1CC[C@@]1(C)C[C@]13CC[C@@](C)(O)[C@H]23 [Compound 23] the “content of Compound 1 (converted from Compound 23)” value (from here on “content”) ([1]; 1 h) was 5.36%, the “content” value ([1]; 2 h) was 11.05% and the “content” value ([1]; 4 h) was 19.64%. The “content” value ([1]; 8 h) was 39.29%, the “content” value ([1]; 12 h) was 55.36% and the “activities of the mice after each administration” value ([2]; 500 and 1000 mg/kg) was “relatively reduced”. For the same compound, the “time to return to normal after administration” value ([2]; 500 and 1000 mg/kg) was 1 to 2 h, the “mortality” value ([2]; 500 and 1000 mg/kg, 30 days) was “none of the mice die” and the “effect on body weights” value ([2]; 500 and 1000 mg/kg, female and male mice) was “no obvious effect on the body weights”. The body weight ([2]; female, 500 mg/kg i.g. daily, Day 1) was 100.00 ± 0.00, the body weight ([2]; female, 500 mg/kg i.g. daily, Day 5) was 100.41 ± 0.43 and the body weight ([2]; female, 500 mg/kg i.g. daily, Day 10) was 99.01 ± 1.34. It also gave a body weight ([2]; female, 500 mg/kg i.g. daily, Day 15) of 100.03 ± 0.95, a body weight ([2]; female, 500 mg/kg i.g. daily, Day 20) of 100.52 ± 0.74 and a body weight ([2]; female, 500 mg/kg i.g. daily, Day 25) of 99.81 ± 1.72. It also gave a body weight ([2]; female, 500 mg/kg i.g. daily, Day 30) of 99.79 ± 2.55, a body weight ([2]; female, 1000 mg/kg i.g. daily, Day 1) of 100.00 ± 0.00 and a body weight ([2]; female, 1000 mg/kg i.g. daily, Day 5) of 101.96 ± 0.55. For the same compound, the body weight ([2]; female, 1000 mg/kg i.g. daily, Day 10) was 101.80 ± 2.02, the body weight ([2]; female, 1000 mg/kg i.g. daily, Day 15) was 99.77 ± 2.60 and the body weight ([2]; female, 1000 mg/kg i.g. daily, Day 20) was 101.04 ± 2.13. The body weight ([2]; female, 1000 mg/kg i.g. daily, Day 25) was 99.06 ± 3.56, the body weight ([2]; female, 1000 mg/kg i.g. daily, Day 30) was 100.67 ± 0.91 and the body weight ([2]; male, 500 mg/kg i.g. daily, Day 1) was 100.00 ± 0.00. It also gave a body weight ([2]; male, 500 mg/kg i.g. daily, Day 5) of 100.31 ± 0.89, a body weight ([2]; male, 500 mg/kg i.g. daily, Day 10) of 101.51 ± 4.00 and a body weight ([2]; male, 500 mg/kg i.g. daily, Day 15) of 99.27 ± 2.11. It also gave a body weight ([2]; male, 500 mg/kg i.g. daily, Day 20) of 101.29 ± 0.40, a body weight ([2]; male, 500 mg/kg i.g. daily, Day 25) of 98.93 ± 0.60 and a body weight ([2]; male, 500 mg/kg i.g. daily, Day 30) of 100.10 ± 1.08. For the same compound, the body weight ([2]; male, 1000 mg/kg i.g. daily, Day 1) was 100.00 ± 0.00, the body weight ([2]; male, 1000 mg/kg i.g. daily, Day 5) was 101.48 ± 1.30 and the body weight ([2]; male, 1000 mg/kg i.g. daily, Day 10) was 101.22 ± 0.84. For the same compound, the body weight ([2]; male, 1000 mg/kg i.g. daily, Day 15) was 100.47 ± 1.28, the body weight ([2]; male, 1000 mg/kg i.g. daily, Day 20) was 100.15 ± 2.76 and the body weight ([2]; male, 1000 mg/kg i.g. daily, Day 25) was 98.35 ± 1.14. The body weight ([2]; male, 1000 mg/kg i.g. daily, Day 30) was 100.71 ± 0.53.

In the case of C=C1C(=O)O[C@@H]2[C@H]3C(C)=CC[C@@]34O[C@@]4(C)CC[C@@H]12 [arglabin, reference compound], the EC50 [3] is listed as 10 nM.

Reference: US20240124409A1, “GUAIANOLIDE SESQUITERPENE LACTONE DERIVATIVES AND PHARMACEUTICAL USE THEREOF” (NANJING UNIVERSITY OF CHINESE MEDICINE, priority 2021, published 2024)
